Laboratory results from EPA's ToxRefDB 2.

How the values were obtained:
rat [1] = conditions: Subchronic oral toxicity in rodents, sprague dawley, Feed, dose end: 90 day, group: systemic
rat [2] = conditions: Combined chronic toxicity/carcinogenicity, sprague dawley, Oral, Feed, dose end: 2 year, group: systemic
rat [3] = conditions: Prenatal developmental toxicity study, wistar, Oral, Gavage/Intubation, dose end: 16 GD
mouse [4] = conditions: Carcinogenicity; cd1; Oral; Feed; dose end: 18 month; group: systemic; systemic / in life observation / body weight / body weight + systemic / in life observation / body weight / body weight gain + systemic / in…
dog [5] = conditions: Chronic toxicity, beagle, Oral, Capsule, dose end: 53 week, group: systemic
rat [6] = conditions: Multigenerational reproductive toxicity study, sprague dawley, Oral, Feed, dose end: 3 generation
dog [7] = conditions: Subchronic oral toxicity in nonrodent, beagle, Capsule, dose end: 90 day, group: systemic, systemic / in life observation / clinical signs / [other] + systemic / in life observation / clinical signs / feces, discoloration + …
mouse [8] = conditions: Chronic toxicity; cd1; Oral; Feed; dose end: 1 year; group: systemic; systemic / in life observation / body weight / body weight gain + systemic / in life observation / food consumption / food efficiency
rat [9] = conditions: Subchronic oral toxicity in rodents, sprague dawley, Feed, dose end: 90 day, group: systemic, systemic / in life observation / body weight / body weight gain + systemic / pathology gross / eye / opacity + systemic / pathology …
rat [10] = conditions: Subchronic oral toxicity in rodents, wistar, Feed, dose end: 90 day, group: systemic
dog [11] = conditions: Chronic toxicity, beagle, Oral, Feed, dose end: 52 week, group: systemic
rat [12] = conditions: Prenatal developmental toxicity study, wistar, Oral, Gavage/Intubation, dose end: 15 GD
mouse [13] = conditions: Carcinogenicity, other, Oral, Feed, dose end: 18 month, group: systemic
rat [14] = conditions: Multigenerational reproductive toxicity study, Wistar, Oral, Feed, dose end: 2 generation
rabbit = conditions: Prenatal developmental toxicity study, new zealand white, Oral, Gavage/Intubation, dose end: 28 GD
rat [15] = conditions: Combined chronic toxicity/carcinogenicity, wistar, Oral, Feed, dose end: 2 year, group: systemic
rat [16] = conditions: Combined chronic toxicity/carcinogenicity; wistar; Oral; Diet; dose end: 104 week; group: systemic; systemic / in life observation / body weight / body weight + systemic / in life observation / food consumption / food consumption + systemic…
mouse [17] = conditions: Subchronic oral toxicity in rodents, other, Feed, dose end: 90 day, group: systemic
rat [18] = conditions: Carcinogenicity; fischer; Oral; Feed; dose end: 2 year; group: systemic; systemic / in life observation / body weight / body weight + systemic / pathology microscopic / kidney / hemosiderosis + systemic / …
mouse [19] = conditions: Carcinogenicity; b6c3f1; Oral; Feed; dose end: 2 year; group: systemic; systemic / in life observation / body weight / body weight
[20] = systemic / organ weight / liver / absolute + systemic / organ weight / liver / relative to body weight
[21] = systemic / in life observation / body weight / body weight + systemic / in life observation / body weight / body weight gain
[22] = group: developmental, developmental / developmental malformation / bone / unossified + developmental / developmental malformation / bone / bipartite ossification…
[23] = group: maternal, systemic / in life observation / body weight / body weight gain + systemic / in life observation / food consumption / food consumption + …
[24] = systemic / clinical chemistry / tyrosine / tyrosine + systemic / pathology microscopic / lymph node / erythrophagocytosis
[25] = systemic / clinical chemistry / tyrosine / tyrosine + systemic / pathology microscopic / lymph node / erythrophagocytosis + systemic / in …
[26] = group: offspring, systemic / clinical chemistry / tyrosine / tyrosine
[27] = group: parental, systemic / clinical chemistry / tyrosine / tyrosine
[28] = group: parental, systemic / clinical chemistry / tyrosine / tyrosine + systemic / organ weight / liver / relative to body weight
[29] = group: reproductive, reproductive / offspring survival early / litter size / litter size
[30] = group: reproductive, reproductive / offspring survival early / litter size / litter size + reproductive / offspring survival early / birth index / live birth …
[31] = systemic / clinical chemistry / alkaline phosphatase (alp/alk) / alkaline phosphatase (alp/alk) + systemic / clinical chemistry / urea …
[32] = systemic / hematology / erythrocyte (rbc) count differential / erythrocyte (rbc) + systemic / hematology / hematocrit (hct) / hematocrit (…
[33] = group: developmental, systemic / in life observation / body weight / fetal weight
[34] = group: maternal, systemic / in life observation / body weight / body weight + systemic / in life observation / body weight / body weight gain
[35] = systemic / pathology microscopic / epididymis / dilatation + systemic / pathology microscopic / epididymis / infiltration cellular + …
[36] = group: offspring, systemic / in life observation / body weight / offspring (pup) weight gain
[37] = group: parental, systemic / in life observation / body weight / body weight gain
[38] = group: developmental, developmental / developmental malformation / bone / hole(s) + developmental / developmental malformation / bone / incomplete ossification + …
[39] = group: maternal, reproductive / reproductive performance / aborted / aborted + systemic / in life observation / body weight / body weight gain + systemic / …
[40] = systemic / in life observation / body weight / body weight + systemic / in life observation / body weight / body weight gain + systemic / …
[41] = systemic / clinical chemistry / cholesterol / cholesterol + systemic / pathology microscopic / liver / hypertrophy + systemic / clinical …

CS(=O)(=O)c1ccc(C(=O)C2C(=O)CCCC2=O)c([N+](=O)[O-])c1 [Mesotrione]
LEL (rat [1]; [20]): 0.21 mg/kg/day | NEL (rat [1]; [20]): < 0.21 mg/kg/day | LOAEL (rat [1]; systemic / pathology microscopic / eye / neovascularization + systemic / pathology microscopic / eye / opacity): 0.63 mg/kg/day | NOAEL (rat [1]; systemic / pathology microscopic / eye / neovascularization + systemic / pathology microscopic / eye / opacity + systemic / clinical …): 0.41 mg/kg/day | LEL (rat [2]; [21]): 0.06 mg/kg/day | NEL (rat [2]; [21]): < 0.06 mg/kg/day | LOAEL (rat [2]; systemic / organ weight / kidney / absolute + systemic / organ weight / kidney / nos + systemic / organ weight / liver / absolute + systemic…): 0.48 mg/kg/day | LEL (rat [3]; [22]): 100 mg/kg/day | LOAEL (rat [3]; [22]): 100 mg/kg/day | NEL (rat [3]; [22]): < 100 mg/kg/day | NOAEL (rat [3]; [22]): < 100 mg/kg/day | LOAEL (rat [3]; group: maternal, systemic / in life observation / body weight / body weight gain + systemic / in life observation / food consumption / food consumption): 300 mg/kg/day | LEL (rat [3]; [23]): 300 mg/kg/day | NEL (rat [3]; [23]): 100 mg/kg/day | NOAEL (rat [3]; [23]): 100 mg/kg/day | LEL (mouse [4]): 898 mg/kg/day | LOAEL (mouse [4]): 898 mg/kg/day | NEL (mouse [4]): 49.7 mg/kg/day | NOAEL (mouse [4]): 49.7 mg/kg/day | LOAEL (dog [5]; [24]): 10 mg/kg/day | NOAEL (dog [5]; [24]): < 10 mg/kg/day | LEL (dog [5]; [25]): 10 mg/kg/day | NEL (dog [5]; [25]): < 10 mg/kg/day | LEL (rat [6]; [26]): 0.3 mg/kg/day | LOAEL (rat [6]; [26]): 0.3 mg/kg/day | NEL (rat [6]; [26]): < 0.3 mg/kg/day | NOAEL (rat [6]; [26]): < 0.3 mg/kg/day | LOAEL (rat [6]; [27]): 0.3 mg/kg/day | NOAEL (rat [6]; [27]): < 0.3 mg/kg/day | LEL (rat [6]; [28]): 0.3 mg/kg/day | NEL (rat [6]; [28]): < 0.3 mg/kg/day | LEL (rat [6]; [29]): 1.1 mg/kg/day | LOAEL (rat [6]; [29]): 1.1 mg/kg/day | NEL (rat [6]; [30]): 0.3 mg/kg/day | NOAEL (rat [6]; [30]): 0.3 mg/kg/day | LEL (dog [7]): 600 mg/kg/day | LOAEL (dog [7]): > 1000 mg/kg/day | NEL (dog [7]): 100 mg/kg/day | NOAEL (dog [7]): ≥ 1000 mg/kg/day | LEL (mouse [8]): 1110 mg/kg/day | LOAEL (mouse [8]): 1110 mg/kg/day | NEL (mouse [8]): 56.2 mg/kg/day | NOAEL (mouse [8]): 56.2 mg/kg/day | LEL (rat [9]): 11 mg/kg/day | LOAEL (rat [9]): 11 mg/kg/day | NEL (rat [9]): 0.09 mg/kg/day | NOAEL (rat [9]): 0.09 mg/kg/day

O=C(Nc1ccccc1)Nc1cnns1 [Thidiazuron]
LOAEL (rat [10]; [31]): 102 mg/kg/day | NEL (rat [10]; [31]): 11.2 mg/kg/day | NOAEL (rat [10]; [31]): 34.5 mg/kg/day | LEL (rat [10]; systemic / clinical chemistry / phosphorus / phosphorus): 34.5 mg/kg/day | LOAEL (dog [11]; [32]): 11.8 mg/kg/day | NOAEL (dog [11]; [32]): 3.93 mg/kg/day | LEL (dog [11]; systemic / organ weight / spleen / absolute + systemic / organ weight / spleen / relative to body weight): 11.1 mg/kg/day | NEL (dog [11]; systemic / organ weight / spleen / absolute + systemic / organ weight / spleen / relative to body weight + systemic / hematology / …): 4.01 mg/kg/day | LEL (rat [12]; [33]): 300 mg/kg/day | LOAEL (rat [12]; [33]): 300 mg/kg/day | NEL (rat [12]; [33]): 100 mg/kg/day | NOAEL (rat [12]; [33]): 100 mg/kg/day | LEL (rat [12]; [34]): 300 mg/kg/day | LOAEL (rat [12]; [34]): 300 mg/kg/day | NEL (rat [12]; [34]): 100 mg/kg/day | NOAEL (rat [12]; [34]): 100 mg/kg/day | LOAEL (mouse [13]; systemic / pathology microscopic / epididymis / dilatation + systemic / pathology microscopic / epididymis / infiltration cellular): 86.7 mg/kg/day | LEL (mouse [13]; [35]): 86.7 mg/kg/day | NEL (mouse [13]; [35]): 26.5 mg/kg/day | NOAEL (mouse [13]; [35]): 26.5 mg/kg/day | LEL (rat [14]; [36]): 108 mg/kg/day | LOAEL (rat [14]; [36]): 108 mg/kg/day | NEL (rat [14]; [36]): 35.4 mg/kg/day | NOAEL (rat [14]; [36]): 35.4 mg/kg/day | LEL (rat [14]; [37]): 108 mg/kg/day | LOAEL (rat [14]; [37]): 108 mg/kg/day | NEL (rat [14]; [37]): 35.4 mg/kg/day | NOAEL (rat [14]; [37]): 35.4 mg/kg/day | LEL (rabbit; [38]): 125 mg/kg/day | LOAEL (rabbit; [38]): 125 mg/kg/day | NEL (rabbit; [38]): 25 mg/kg/day | NOAEL (rabbit; [38]): 25 mg/kg/day | LEL (rabbit; [39]): 125 mg/kg/day | LOAEL (rabbit; [39]): 125 mg/kg/day | NEL (rabbit; [39]): 25 mg/kg/day | NOAEL (rabbit; [39]): 25 mg/kg/day | LOAEL (rat [15]; [40]): 36.4 mg/kg/day | NOAEL (rat [15]; [40]): 8 mg/kg/day | NEL (rat [15]; systemic / pathology microscopic / kidney / mineralization + systemic / pathology microscopic / kidney / dilatation + systemic / pathology …): 105 mg/kg/day | LEL (rat [16]): 31.7 mg/kg/day | LOAEL (rat [16]): > 31.7 mg/kg/day | NEL (rat [16]): 10.6 mg/kg/day | NOAEL (rat [16]): ≥ 31.7 mg/kg/day | LOAEL (mouse [17]; systemic / clinical chemistry / cholesterol / cholesterol + systemic / pathology microscopic / liver / hypertrophy): 171 mg/kg/day | NEL (mouse [17]; [41]): 85.2 mg/kg/day | NOAEL (mouse [17]; [41]): 85.2 mg/kg/day | LEL (mouse [17]; systemic / clinical chemistry / cholesterol / cholesterol + systemic / pathology microscopic / liver / hypertrophy + systemic / organ weight…): 171 mg/kg/day

c1ccc(N=Nc2ccccc2)cc1 [Azobenzene]
LEL (rat [18]): 10 mg/kg/day | LOAEL (rat [18]): > 20 mg/kg/day | NEL (rat [18]): < 10 mg/kg/day | NOAEL (rat [18]): ≥ 20 mg/kg/day | LEL (mouse [19]): 30 mg/kg/day | LOAEL (mouse [19]): 81.8 mg/kg/day | NEL (mouse [19]): < 30 mg/kg/day
